Source: ChEMBL document CHEMBL3352542, “Synthesis, biological evaluation and molecular modeling study of 2-(1,3,4-thiadiazolyl-thio and 4-methyl-thiazolyl-thio)-quinazolin-4-ones as a new class of DHFR inhibitors” (Bioorg Med Chem Lett, 2014)
Calls of active or inactive are those of the source. The calls are words filed in the database; no cut-off is given here.

Legend:
MCF7 = assay: Growth inhibition of human MCF7 cells at 10 uM after 48 hrs; assay type: functional; settings: MCF7, 48 h, read-out: GI
Pseudomonas aeruginosa = assay: Antimicrobial activity against Pseudomonas aeruginosa assessed as inhibition zone at 200 ug/disk after 24 hrs by disc-diffusion method; assay type: functional; settings: read-out: IZ
NCI-H23 = assay: Growth inhibition of human NCI-H23 cells at 10 uM after 48 hrs; assay type: functional; settings: NCI-H23, 48 h, read-out: GI
[1] = Growth inhibition of human LOXIMVI cells at 10 uM after 48 hrs; assay type: functional; settings: LOX IMVI, read-out: GI
[2] = Growth inhibition of human NCI-ADR-RES cells at 10 uM after 48 hrs; assay type: functional; settings: read-out: GI
[3] = Growth inhibition of human HOP92 cells at 10 uM after 48 hrs; assay type: functional; settings: HOP-92, 48 h, read-out: GI
[4] = Growth inhibition of human SF539 cells at 10 uM after 48 hrs; assay type: functional; settings: SF-539, 48 h, read-out: GI
SK-MEL-5 = assay: Growth inhibition of human SK-MEL-5 cells at 10 uM after 48 hrs; assay type: functional; settings: SK-MEL-5, 48 h, read-out: GI
[5] = Growth inhibition of human Hs 578T cells at 10 uM after 48 hrs; assay type: functional; settings: read-out: GI
SF-268 = assay: Growth inhibition of human SF268 cells at 10 uM after 48 hrs; assay type: functional; settings: SF-268, 48 h, read-out: GI
T47D = assay: Growth inhibition of human T47D cells at 10 uM after 48 hrs; assay type: functional; settings: read-out: GI
K562 = assay: Growth inhibition of human K562 cells at 10 uM after 48 hrs; assay type: functional; settings: K562, 48 h, read-out: GI
CCRF-CEM = assay: Growth inhibition of human CCRF-CEM cells at 10 uM after 48 hrs; assay type: functional; settings: read-out: GI
NCI-H226 = assay: Growth inhibition of human NCI-H226 cells at 10 uM after 48 hrs; assay type: functional; settings: NCI-H226, 48 h, read-out: GI
A498 = assay: Growth inhibition of human A498 cells at 10 uM after 48 hrs; assay type: functional; settings: A498, 48 h, read-out: GI
SNB-75 = assay: Growth inhibition of human SNB75 cells at 10 uM after 48 hrs; assay type: functional; settings: SNB-75, 48 h, read-out: GI
Bacillus subtilis [6] = assay: Antimicrobial activity against Bacillus subtilis assessed as inhibition of visible growth after 24 hrs by disc-diffusion method; assay type: functional, organism-based
U-251 = assay: Growth inhibition of human U251 cells at 10 uM after 48 hrs; assay type: functional; settings: U-251, 48 h, read-out: GI
[7] = Growth inhibition of human OVCAR3 cells at 10 uM after 48 hrs; assay type: functional; settings: OVCAR-3, 48 h, read-out: GI
Candida albicans = assay: Antimicrobial activity against Candida albicans assessed as inhibition zone at 200 ug/disk after 24 hrs by disc-diffusion method; assay type: functional; settings: read-out: IZ
[8] = Growth inhibition of human RPMI8226 cells at 10 uM after 48 hrs; assay type: functional; settings: RPMI-8226, 48 h, read-out: GI
[9] = Growth inhibition of human OVCAR8 cells at 10 uM after 48 hrs; assay type: functional; settings: OVCAR-8, 48 h, read-out: GI
CAKI-1 = assay: Growth inhibition of human CAKI-1 cells at 10 uM after 48 hrs; assay type: functional; settings: CAKI-1, 48 h, read-out: GI
[10] = Growth inhibition of human UACC257 cells at 10 uM after 48 hrs; assay type: functional; settings: UACC-257, 48 h, read-out: GI
KM12 = assay: Growth inhibition of human KM12 cells at 10 uM after 48 hrs; assay type: functional; settings: KM12, 48 h, read-out: GI
[11] = Growth inhibition of human HCT15 cells at 10 uM after 48 hrs; assay type: functional; settings: HCT-15, 48 h, read-out: GI
[12] = Growth inhibition of human RXF393 cells at 10 uM after 48 hrs; assay type: functional; settings: RXF 393, 48 h, read-out: GI
[13] = Growth inhibition of human UO31 cells at 10 uM after 48 hrs; assay type: functional; settings: UO-31, 48 h, read-out: GI
ACHN = assay: Growth inhibition of human ACHN cells at 10 uM after 48 hrs; assay type: functional; settings: read-out: GI
Bacillus subtilis [14] = assay: Antimicrobial activity against Bacillus subtilis assessed as inhibition zone at 200 ug/disk after 24 hrs by disc-diffusion method; assay type: functional; settings: read-out: IZ
SR = assay: Growth inhibition of human SR cells at 10 uM after 48 hrs; assay type: functional; settings: read-out: GI
Dihydrofolate reductase = biological target: T1, Dihydrofolate reductase (Bos taurus, UniProt P00376); assay: Inhibition of bovine liver DHFR
T1 sequence (P00376 whole entry): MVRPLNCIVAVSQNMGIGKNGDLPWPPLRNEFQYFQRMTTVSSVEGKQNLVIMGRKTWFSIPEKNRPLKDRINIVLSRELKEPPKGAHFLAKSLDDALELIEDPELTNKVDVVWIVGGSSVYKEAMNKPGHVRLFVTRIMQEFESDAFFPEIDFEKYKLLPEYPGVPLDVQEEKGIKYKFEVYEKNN

[15] = Growth inhibition of human PC3 cells at 10 uM after 48 hrs; assay type: functional; settings: PC-3, 48 h, read-out: GI
M14 = assay: Growth inhibition of human M14 cells at 10 uM after 48 hrs; assay type: functional; settings: M14, 48 h, read-out: GI
[16] = Growth inhibition of human MOLT4 cells at 10 uM after 48 hrs; assay type: functional; settings: MOLT-4, 48 h, read-out: GI
Staphylococcus aureus [17] = assay: Antimicrobial activity against Staphylococcus aureus assessed as inhibition of visible growth after 24 hrs by disc-diffusion method; assay type: functional, organism-based
[18] = Growth inhibition of human OVCAR4 cells at 10 uM after 48 hrs; assay type: functional; settings: OVCAR-4, 48 h, read-out: GI
[19] = Growth inhibition of human SF295 cells at 10 uM after 48 hrs; assay type: functional; settings: SF-295, 48 h, read-out: GI
Escherichia coli = assay: Antimicrobial activity against Escherichia coli assessed as inhibition zone at 200 ug/disk after 24 hrs by disc-diffusion method; assay type: functional; settings: read-out: IZ
MDA-MB-231 = assay: Growth inhibition of human MDA-MB-231 cells at 10 uM after 48 hrs; assay type: functional; settings: MDA-MB-231, 48 h, read-out: GI
Staphylococcus aureus [20] = assay: Antimicrobial activity against Staphylococcus aureus assessed as inhibition zone at 200 ug/disk after 24 hrs by disc-diffusion method; assay type: functional; settings: read-out: IZ
[21] = Growth inhibition of human HCT116 cells at 10 uM after 48 hrs; assay type: functional; settings: HCT-116, 48 h, read-out: GI
MDA-MB-468 = assay: Growth inhibition of human MDA-MB-468 cells at 10 uM after 48 hrs; assay type: functional; settings: MDA-MB-468, 48 h, read-out: GI
A549 = assay: Growth inhibition of human A549 cells at 10 uM after 48 hrs; assay type: functional; settings: A549, 48 h, read-out: GI
[22] = Growth inhibition of human UACC62 cells at 10 uM after 48 hrs; assay type: functional; settings: UACC-62, 48 h, read-out: GI

For Cc1ccc2nc(Sc3sc(N)nc3C)n(Cc3ccccc3)c(=O)c2c1, the inhibition of growth at 10 µM (MCF7) was 10.7%, the zone of inhibition at 200 µg/disc (Pseudomonas aeruginosa) was 8 mm and the inhibition of growth at 10 µM (NCI-H23) was 19.2%. For the same compound, the inhibition of growth at 10 µM [1] was 19.5%, the inhibition of growth at 10 µM [2] was 20.3% and the inhibition of growth at 10 µM [3] was 50.2%. For the same compound, the inhibition of growth at 10 µM [4] was 15.1%, the inhibition of growth at 10 µM (SK-MEL-5) was 25.8% and the inhibition of growth at 10 µM [5] was 19.4%. The inhibition of growth at 10 µM (SF-268) was 10.8%, the inhibition of growth at 10 µM (T47D) was 23.9% and the inhibition of growth at 10 µM (K562) was 17.4%. It also gave an inhibition of growth at 10 µM (CCRF-CEM) of 14.9%, an inhibition of growth at 10 µM (NCI-H226) of 22.7% and an inhibition of growth at 10 µM (A498) of 21.9%. For the same compound, the inhibition of growth at 10 µM (SNB-75) was 22.7%, the Activity (Bacillus subtilis [6]) was “Active” and the inhibition of growth at 10 µM (U-251) was 12.2%. The inhibition of growth at 10 µM [7] was 19.2%, the zone of inhibition at 200 µg/disc (Candida albicans) was 12 mm and the inhibition of growth at 10 µM [8] was 28.1%. For the same compound, the inhibition of growth at 10 µM [9] was 16%, the inhibition of growth at 10 µM (CAKI-1) was 13.7% and the inhibition of growth at 10 µM [10] was 11.6%. It also gave an inhibition of growth at 10 µM (KM12) of 18.8%, an inhibition of growth at 10 µM [11] of 13.5% and an inhibition of growth at 10 µM [12] of 17.8%. The inhibition of growth at 10 µM [13] was 35.5%, the inhibition of growth at 10 µM (ACHN) was 19.8% and the zone of inhibition at 200 µg/disc (Bacillus subtilis [14]) was 21 mm. It also gave an inhibition of growth at 10 µM (SR) of 19%, an IC50 (Dihydrofolate reductase) of 5 µM and an inhibition of growth at 10 µM [15] of 34.5%. The inhibition of growth at 10 µM (M14) was 10.3%, the inhibition of growth at 10 µM [16] was 34.2% and the Activity (Staphylococcus aureus [17]) was “Active”. The inhibition of growth at 10 µM [18] was 18.7%, the inhibition of growth at 10 µM [19] was 21.9% and the zone of inhibition at 200 µg/disc (Escherichia coli) was 8 mm. It also gave an inhibition of growth at 10 µM (MDA-MB-231) of 14.2%, a zone of inhibition at 200 µg/disc (Staphylococcus aureus [20]) of 18 mm and an inhibition of growth at 10 µM [21] of 20.7%. It also gave an inhibition of growth at 10 µM (MDA-MB-468) of 30.1%, an inhibition of growth at 10 µM (A549) of 22.1% and an inhibition of growth at 10 µM [22] of 22.8%.
